{"source": "patent US9567578B1", "about": "“Cell line containing a knockout of the glutamine synthetase (GS) gene and a method of producing target proteins using a GS knockout HEK293 cell line” (Korea Advanced Institute of Science and Technology, priority 2016, dated 2017)", "key": {"[1]": {"tested_on": "HEK293_GS-KO host cell line", "details": "glutamine-free selection medium", "protocol": "(§1) First, the cells were inoculated in T-25 flask containing 5 ml of DMEM supplemented with 1×GSEM, 7% (v/v) FBS and glutamine at the density of 4×10^5 cells/ml. 24 hours later, when the cultured cells reached 90% of confluency in the flask, the vector containing a target protein gene mixed with liposome was additionally added to the gs gene knockout HEK293 cell line prepared in Experimental Example 1. 24 hours later, the selection marker protein (GS) inhibitor MSX was treated to the selection medium (glutamine-free DMEM supplemented with 1×GSEM and 10% (v/v) dFBS) at the concentrations of 0 μM, 25 μM, 50 μM, and 100 μM. The cells introduced with the vector were inoculated in the 96 well plate by 200 μl/well. The wild type HEK293 host cell line was also introduced with a target protein gene by the same manner as described above, followed by the selection from the 96 well plate. The cell concentration for the inoculation into the 96 well plate was determined by the concentration at which only one clone would survive after 3 weeks of selection period. To select the MSX resistant cell line (transformed cell line), the cells showing MSX resistance could be collected as a pool or prepared as each individual clone and herein the cell line was collected as an individual clone.\n(§2) In the table above, “survival rate” was obtained by dividing the number of all the wells containing the cell by the number of the total inoculated wells.\n(§3) The cells inoculated in a 96 well plate were observed under microscope and the medium was replaced every 5˜7 days. […] The collected cells were inoculated in a 48 well plate (500 μl). When the cells were grown in the well, the cells were inoculated again in a 24 well plate (1 ml). When the cells were fully grown in the 24 well plate, the cells were collected and inoculated in another 24 well plate containing 1 ml of culture medium at the density of 1×10^5 cells/ml. To quantify the production of the target protein, batch culture was performed for 6 days. On the 6th day, the medium was collected and ELISA was performed with the target protein to measure the productivity of each clone. By the method above, 50 clones originated from the gs knockout HEK93 cell line were constructed each in the presence of 0 μM, 25 μM, and 50 μM of MSX. 50 control clones originated from the wild type HEK293 cell line were also constructed for comparison.\n(§4) In the Table above, “selection efficiency” indicates the portion of high production clones (those clones that could produce a target protein at least 1 μg/μl until the 6th day) in 50 constructed clones at each condition."}, "[2]": {"tested_on": "wild type HEK293 host cell line", "details": "glutamine-free selection medium", "protocol": "as §1, §2, §3, §4"}, "HEK293 cell line": {"tested_on": "HEK293 cell line", "details": "glutamine-free EX-CELL 293 SFM, MSX 0-1000 μM, suspension culture", "quoted_text": "The cell growth rate and the cell viability were investigated in the course of culture of HEK293 cell line with the addition of different concentrations of MSX.\nParticularly, HEK293 host cells were inoculated in 50 ml of the glutamine-free EX-CELL® 293 SFM medium (Sigma), and also inoculated in the control medium supplemented with 4 mM glutamine. To the experimental group, MSX, the glutamine synthetase inhibitor, was added at the concentrations of 0 μM, 100 μM, 300 μM, 500 μM, and 1000 μM, respectively. The cell mixture was inoculated in Erlenmeyer flask at the density of 3×10^5 cells/ml, followed by suspension culture. 1 ml of the cell culture fluid was taken from each flask every 24 hours, followed by investigation of the cell concentration and the cell viability."}}, "note": "Where two headings read alike, the source gives them in different places."}
{"smiles": "CS(=N)(=O)CC[C@H](N)C(=O)O", "note": "(stereo partly shown) [MSX, methionine sulfoximine]", "values": [{"measurement": "Survival rate", "setting": "[1]; MSX 25 μM, inoculation 2000 cells/96 well", "result": 11.9, "unit": "%"}, {"measurement": "Survival rate", "setting": "[1]; MSX 50 μM, inoculation 2000 cells/96 well", "result": 2.3, "unit": "%"}, {"measurement": "Survival rate", "setting": "[1]; MSX 100 μM, inoculation 5000 cells/96 well", "result": 0.5, "unit": "%"}, {"measurement": "Survival rate", "setting": "[2]; MSX 25 μM, inoculation 1 cells/96 well", "result": 22.9, "unit": "%"}, {"measurement": "Survival rate", "setting": "[2]; MSX 50 μM, inoculation 10 cells/96 well", "result": 28.1, "unit": "%"}, {"measurement": "Survival rate", "setting": "[2]; MSX 100 μM, inoculation 500 cells/96 well", "result": 75.8, "unit": "%"}, {"measurement": "resistance against MSX (cell growth and cell viability)", "setting": "HEK293 cell line", "result": "high resistance"}]}
